Measured values: PMC7732531 (Frontiers in Pharmacology, 2020)

What was measured:
[1] = Blood/plasma partitional ratio, human blood; format: in vitro ADME; conditions: fresh pooled whole blood with heparin, human whole blood, 37°C, read-out: blood/plasma partitioning (R b/P)
Experimental: The blood/plasma partitional ratio (R b/p) in rat and human blood was measured in vitro using fresh pooled blood including heparin. Whole blood was preincubated at 37°C in a water bath, and spiked with YL-IPA08 at 1 µM. The blood samples were incubated at 37°C for 1 h. After incubation, aliquots of 25 µl spiked whole blood were removed, and the remaining blood was centrifuged at 2,000 × g for 10 min, after which 25 µl aliquots of plasma were removed. Obtained blood and plasma samples were spiked with same volume of blank plasma or blood, respectively, and then immediately precipitated by adding 4× volumes of acetonitrile containing IS to get the same matrix. The concentrations of YL-IPA08 in blood and plasma were determined by LC-MS/MS.

in vitro = in vitro ADME; conditions: rat
Experimental: The fraction of unbound YL-IPA08 in plasma and liver microsomes of rat and human, and brain homogenates of rat were determined utilizing Rapid Equilibrium Dialysis method ([Waters et al., 2008]). Rat brain homogenate was harvested in 4-fold volume (w/v) of PBS (pH 7.4). YL-IPA08 were spiked into fresh plasma, rat brain homogenate, liver microsomes (0.2 mg/ml protein) at concentration of 1 µM, and then dialyzed against biomatrices on a shaker at 37°C for 4 h. To avoid the high non-specific binding of YL-IPA08, 0.01% Tween 80 was added in the incubation mixture. At the end of the incubation, protein was precipitated with acetonitrile (containing IS) and analyzed by LC-MS/MS. Phenacetin, quinidine, and warfarin were selected as positive control for the protein binding test.
The unbound fraction of YL-IPA08 in plasma or liver microsomes (ƒu,x) was calculated as shown in Eq. 2, and unbound fraction in the tissue homogenate (ƒu,b) was calculated according to Eq. 3. fu,x = Concbuffer chamber/Concplasma/liver microsomes chamber (2) fu,b = Concbuffer chamber/Concbrain homogenate chamber (3) The measured unbound fractions would be higher when a tissue is homogenized and diluted in buffer, the unbound fractions in an undiluted tissues (ƒu,brain) were calculated using Eq. 4 ([Kalvass and Maurer, 2002]). Undiluted fu,brain=1/D/((1/fu,brain homogenate)−1)+1/D (4) Where D represents the fold of dilution factor in brain homogenates.

TSPO = assay: In vitro TSPO binding, crude mitochondrial fraction from rat cerebellum; conditions: corrected by binding fraction of 10-volume brain homogenate
Source text: Unbound fractions of YL-IPA08 in rat plasma and brain homogenate were 0.6 and 0.49%, respectively. K p value of brain to plasma in rats was obtained under steady state to reach brain equilibrium in a transient dosing regimen. Then, K p,uu achieved 0.18. The unbound concentration of YL-IPA08 in brain can be estimated based on the plasma concentrations after rats receiving different dosages of YL-IPA08 via oral dosing (Table 4). For example, the unbound concentration of 6.5 pg/g in brain can be achieved after 1 mg/kg oral dosing. […] The unbound concentration in the incubates was obtained with 0.0108 nM (e.g., 4.9 pg/ml) by correcting the binding fraction of 10-volume brain homogenate (0.047).

[2] = human, microsomes, 0 h, 1 μM, pH 7.4
[3] = Metabolic stability in rat liver microsomes (NADPH / UDPGA); conditions: RLM
[4] = Pilot enzyme kinetic study in liver microsomes; format: in vitro ADME
Source text: Since identification of F a, F g and F h is of importance to mechanistic understanding the systemic exposure, the related efficacy, and the potent drug-drug interactions, a number of in vivo and in vitro models have been developed to elucidate F a, F g and F h. As for in vitro methods, liver microsomes, S9 or hepatocytes are all well accepted for the generation of hepatic clearance and F h via in vitro-in vivo extrapolation (IVIVE) ([Houston and Carlile, 1998]). Furthermore, functionally mature enterocytes mainly express CYPs and UGTs. Among UGT isoforms, UGT1A8 and UGT1A10 show gut-specific expression patterns ([Kaminsky and Zhang, 2003]; [Court et al., 2012]). However, the achievement of intestinal clearance and (F g) from intestinal microsomes is limited by a lack of consensus on the appropriate scaling factors and a low availability of high-quality tissue. In the present study, in vitro metabolic stability of YL-IPA08 was performed in liver microsomes and intestinal microsomes of rat and human in the presence of NADPH and UDPGA to identify the metabolizing enzyme, organ, and species difference. […] UGT is not involved in the depletion of YL-IPA08. Although the CYP-mediated elimination in HIM and RIM were also observed, with great difference of enzyme expression level between liver and gut, the contribution of intestinal metabolism to the oral bioavailability is hard to define. […]

in vivo = conditions: male, rat, po, 1 mg/kg
Experimental: The surgical procedure for portal vein catheter insertion was performed according to reference ([Matsuda et al., 2012]). Male SD rats (250–280 g) were purchased from Beijing Vital River Laboratory Animal Technology Co., Ltd. (Beijing, China). Rats were anesthetized with 2% pentobarbital sodium (0.2–0.3 mg/100 g) intraperitoneally dosed. Cannulation into the jugular vein was performed by the method of Murakami reported ([Murakami et al., 2003]) with minor modification. Briefly, an incision of ∼0.5 cm near right clavicle was made and the jugular vein was exposed. Next, this vein was cannulated with ∼12.5 cm of silicone gel tubing (0.6 mm I.D. × 0.9 mm O.D., Skillsmodel Inc., Beijing, China). The other side of the tubing was passed through the back skin. 2.5 cm midline incision was made in the abdominal cavity close to ensiform process and the portal vein was detached. To prevent bleeding, the portal vein was ligated temporarily as the catheter was inserted. The silicone tubing (22 cm, 0.6 mm I.D. × 0.9 mm O.D., Skillsmodel Inc., Beijing, China) was inserted immediately and fixed by a purse-string suture on the portal vein. The time to reperfusion was about 1 min after intercepted blood flow. In addition, a catheter with trumpet-shaped opening was used to prevent the catheter from slipping out of the vessel and minimize the effect on blood flow. Another end of the catheter was passed subcutaneously to the skin close to the scapula.
Blood samples were collected at 0, 0.083, 0.25, 0.5, 1, 2, 4, 6, 8 and 12 h. Blood (approximately 100 µl) was collected from the jugular and portal veins into tubes containing heparin on ice and centrifuged within 1 h of collection. Plasma was harvested and stored at −20°C for bioanalysis.
FaFg was calculated using mass balance method and rat portal blood flow (Qpv) of 32 ml/min/kg, where Rb/p is used to convert plasma concentrations to blood concentrations.

CCN(Cc1ccccn1)C(=O)Cc1c(-c2ccc(Cl)c(Cl)c2)nc2cc(C)ccn12 [YL-IPA08]
blood plasma ratio at 1 h, 1 µM [1]: 1.58 ± 0.06 | Concentration, Cbuffer chamber (in vitro; 4 h, 1 µM): 168.00 ± 5.66 nM | Concentration, Cplasma/microsome chamber (in vitro; 4 h, 1 µM): 393.00 ± 18.03 nM | Protein biding (%) (in vitro; 4 h, 1 µM): 57.14 ± 2.92% | fraction unbound at 4 h, 1 µM (in vitro; microsomes): 0.428 | unbound concentration in the incubates / in vitro TSPO-binding activity (TSPO): 4.9 pg/mL | percent of remaining [2]: 100.00% | Clint normalized by CYP content [3]: 3.47 ± 0.04 ml/min/nmol CYP protein | K m [4]: 1 to 3 µM | concentration at 0.5 h (in vivo; SD, Plasma concentration): 77 ± 22.7 ng/mL | concentration at 1 h (in vivo; SD, Plasma concentration): 75.5 ± 26.7 ng/mL | concentration at 2 h (in vivo; SD, Plasma concentration): 78.3 ± 38.3 ng/mL | concentration at 4 h (in vivo; SD, Plasma concentration): 34.1 ± 13.6 ng/mL | concentration at 6 h (in vivo; SD, Plasma concentration): 11.7 ± 3.9 ng/mL | concentration at 8 h (in vivo; SD, Plasma concentration): 5.23 ± 1.47 ng/mL | concentration at 12 h (in vivo; SD, Plasma concentration): 1.96 ± 0.66 ng/mL | AUC (in vivo; Sprague-Dawley (SD), AUC): 441 ± 93 ng·h/mL
